# Patent US20210094973A1, “HETEROCYCLIC COMPOUNDS” (Hoffmann-La Roche Inc., priority 2019, published 2021)
# Biological target: T1, MAGL (Homo sapiens, UniProt Q99685)
# T1 sequence (Q99685 1-303): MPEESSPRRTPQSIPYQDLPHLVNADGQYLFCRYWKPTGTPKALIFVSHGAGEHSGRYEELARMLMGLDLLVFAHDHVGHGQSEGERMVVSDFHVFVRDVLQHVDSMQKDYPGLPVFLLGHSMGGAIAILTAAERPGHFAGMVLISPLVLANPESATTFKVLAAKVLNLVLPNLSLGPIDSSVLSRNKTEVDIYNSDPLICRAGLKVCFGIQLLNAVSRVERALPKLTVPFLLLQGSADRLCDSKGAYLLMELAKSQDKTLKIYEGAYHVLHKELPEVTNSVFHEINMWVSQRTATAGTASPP
# Assay: 2-AG assay (MAGL inhibitory activity, hydrolysis of 2-arachidonoylglycerol followed by mass spectrometry)
# Format: biochemical
# Details: 15 min preincubation at RT, 8 μM 2-arachidonoylglycerol, 30 min at RT, arachidonic acid by MS
# Description: Compounds were profiled for MAGL inhibitory activity by determining the enzymatic activity by following the hydrolysis of the natural substrate 2-arachidonoylglycerol (2-AG) resulting in arachidonic acid, which can be followed by mass spectrometry. This assay is hereinafter abbreviated “2-AG assay”.
# The 2-AG assay was carried out in 384 well assay plates (PP, Greiner Cat #784201) in a total volume of 20 μL. Compound dilutions were made in 100% DMSO (VWR Chemicals 23500.297) in a polypropylene plate in 3-fold dilution steps to give a final concentration range in the assay from 12.5 μM to […]. 0.25 μL compound dilutions (100% DMSO) were added to 9 μL MAGL in assay buffer (50 mM TRIS (GIBCO, 15567-027), 1 mM EDTA (Fluka, 03690-100 mL), 0.01% (v/v) Tween. After shaking, the plate was incubated for 15 min at RT. To start the reaction, 10 μL 2-arachidonoylglycerol in assay buffer was added. The final concentrations in the assay was […] and 8 μM 2-arachidonoylglyerol. After shaking and 30 min incubation at RT, the reaction was quenched by the addition of 40 μL of ACN containing 4 μM of d8-arachidonic acid. The amount of arachidonic acid was traced by an online SPE system (Agilent Rapidfire) coupled to a triple quadrupole mass spectrometer (Agilent 6460). A C18 SPE cartridge (G9205A) was used in an ACN/water liquid setup. The mass spectrometer was operated in negative electrospray mode following the mass transitions 303.1→259.1 for arachidonic acid and 311.1→267.0 for d8-arachidonic acid. The activity of the compounds was calculated based on the ratio of intensities [arachidonic acid/d8-arachidonic acid].
row,Compound,IC50
1,"O=C1CO[C@H]2CCN(C(=O)N3CCC(OCc4ccc(F)cc4Cl)CC3)C[C@H]2N1 [Example 25, (4aR,8aS)-6-(4-((2-Chloro-4-fluorobenzyl)oxy)piperidine-1-carbonyl)hexahydro-2H-pyrido[4,3-b][1,4]oxazin-3(4H)-one]",72.5 nM
2,"O=C1CO[C@H]2CCN(C(=O)N3CCC(OCc4ccc(C(F)(F)F)cc4Cl)CC3)C[C@H]2N1 [Example 26, (4aR,8aS)-6-(4-((2-chloro-4-(trifluoromethyl)benzyl)oxy)piperidine-1-carbonyl)hexahydro-2H-pyrido[4,3-b][1,4]oxazin-3(4H)-one]",5.2 nM
3,"COc1cc(COC2CN(C(=O)N3CC[C@@H]4OCC(=O)N[C@@H]4C3)C2)ccc1F [Example 30, (4aR,8aS)-6-(3-((4-Fluoro-3-methoxybenzyl)oxy)azetidine-1-carbonyl)hexahydro-2H-pyrido[4,3-b][1,4]oxazin-3(4H)-one]",77.3 nM
4,"O=C1CO[C@H]2CCN(C(=O)N3CC(OCc4ccc(S(F)(F)(F)(F)F)cc4)C3)C[C@H]2N1 [Example 31, (4aR,8aS)-6-(3-((4-(Pentafluoro-16-sulfanyl)benzyl)oxy)azetidine-1-carbonyl)hexahydro-2H-pyrido[4,3-b][1,4]oxazin-3(4H)-one]",5.8 nM
5,"O=C1CO[C@H]2CCN(C(=O)N3CC(OCc4ccccc4OC(F)(F)F)C3)C[C@H]2N1 [Example 32, (4aR,8aS)-6-(3-((2-(Trifluoromethoxy)benzyl)oxy)azetidine-1-carbonyl)hexahydro-2H-pyrido[4,3-b][1,4]oxazin-3(4H)-one]",22.5 nM
6,"O=C1CO[C@H]2CCN(C(=O)N3CC(OCc4ccc(Cl)cc4OC(F)(F)F)C3)C[C@H]2N1 [Example 33, (4aR,8aS)-6-(3-((4-Chloro-2-(trifluoromethoxy)benzyl)oxy)azetidine-1-carbonyl)hexahydro-2H-pyrido[4,3-b][1,4]oxazin-3(4H)-one]",5.9 nM
7,"Cc1ccc(C(F)(F)F)cc1COC1CN(C(=O)N2CC[C@@H]3OCC(=O)N[C@@H]3C2)C1 [Example 34, (4aR,8aS)-6-(3-((2-Methyl-5-(trifluoromethyl)benzyl)oxy)azetidine-1-carbonyl)hexahydro-2H-pyrido[4,3-b][1,4]oxazin-3(4H)-one]",8 nM
8,"O=C1CO[C@H]2CCN(C(=O)N3CCC(Cc4ccc(C(F)(F)F)c(-c5ccccc5)c4)CC3)C[C@H]2N1 [Example 35, (4aR,8aS)-6-[4-[[3-Phenyl-4-(trifluoromethyl)phenyl]methyl]piperidine-1-carbonyl]-4,4a,5,7,8,8a-hexahydropyrido[4,3-b][1,4]oxazin-3-one]",4.6 nM
9,"O=C1CO[C@H]2CCN(C(=O)N3CCC(Cc4ccc(C(F)(F)F)cc4C(F)(F)F)CC3)C[C@H]2N1 [Example 36, (4aR,8aS)-6-[4-[[2,4-bis(Trifluoromethyl)phenyl]methyl]piperidine-1-carbonyl]-4,4a,5,7,8,8a-hexahydropyrido[4,3-b][1,4]oxazin-3-one]",9.4 nM
10,"Cc1cc(CC2CCN(C(=O)N3CC[C@@H]4OCC(=O)N[C@@H]4C3)CC2)cnc1C(F)(F)F [Example 37, (4aR,8aS)-6-(4-((5-Methyl-6-(trifluoromethyl)pyridin-3-yl)methyl)piperidine-1-carbonyl)hexahydro-2H-pyrido[4,3-b][1,4]oxazin-3(4H)-one]",31.7 nM
11,"O=C1CO[C@H]2CCN(C(=O)N3CC(OCc4ccc(OC(F)F)cc4)C3)C[C@H]2N1 [Example 40, (4aR,8aS)-6-(3-((4-(Difluoromethoxy)benzyl)oxy)azetidine-1-carbonyl)hexahydro-2H-pyrido[4,3-b][1,4]oxazin-3(4H)-one]",46.9 nM
12,"O=C1CO[C@H]2CCN(C(=O)C3CC(OCc4ccc(C(F)(F)F)cc4Cl)C3)C[C@H]2N1 (stereo partly drawn) [Example 41, (4aR,8aS)-6-(3-((2-Chloro-4-(trifluoromethyl)benzyl)oxy)cyclobutane-1-carbonyl)hexahydro-2H-pyrido[4,3-b][1,4]oxazin-3(4H)-one]",774 nM
13,"O=C1CO[C@H]2CCN(C(=O)[C@H]3C[C@H](OCc4ccc(C(F)(F)F)cc4Cl)C3)C[C@H]2N1 [Example 42, (4aR,8aS)-6-(3-((2-Chloro-4-(trifluoromethyl)benzyl)oxy)cyclobutane-1-carbonyl)hexahydro-2H-pyrido[4,3-b][1,4]oxazin-3(4H)-one]",261 nM
14,"O=C1CO[C@H]2CCN(C(=O)N3CC(OCc4ccc(C(F)(F)F)cn4)C3)C[C@H]2N1 [Example 43, (4aR,8aS)-6-(3-((5-(Trifluoromethyl)pyridin-2-yl)methoxy)azetidine-1-carbonyl)hexahydro-2H-pyrido[4,3-b][1,4]oxazin-3(4H)-one]",159 nM
15,"O=C1CO[C@H]2CCN(C(=O)N3CC(OCc4ccc(OC(F)(F)F)cc4)C3)C[C@H]2N1 [Example 44, (4aR,8aS)-6-(3-((4-(Trifluoromethoxy)benzyl)oxy)azetidine-1-carbonyl)hexahydro-2H-pyrido[4,3-b][1,4]oxazin-3(4H)-one]",23.6 nM
16,"O=C1CO[C@H]2CCN(C(=O)N3CC(C(=O)Nc4ccc(F)cc4Cl)C3)C[C@H]2N1 [Example 45, N-(2-chloro-4-fluorophenyl)-1-((4aR,8aS)-3-oxooctahydro-2H-pyrido[4,3-b][1,4]oxazine-6-carbonyl)azetidine-3-carboxamide]",1250 nM
17,"CC(Oc1ccc(C(F)(F)F)cc1Cl)C1CN(C(=O)N2CC[C@H]3OCC(=O)N[C@H]3C2)C1 (stereo partly drawn) [Example 46, (4aS,8aR)-6-(3-(1-(2-Chloro-4-(trifluoromethyl)phenoxy)ethyl)azetidine-1-carbonyl)hexahydro-2H-pyrido[4,3-b][1,4]oxazin-3(4H)-one]",225 nM
18,"O=C1CO[C@H]2CCN(C(=O)N3CCC(c4ccnnc4C(F)(F)F)CC3)C[C@H]2N1 [Example 47, (4aR,8aS)-6-(4-(3-(Trifluoromethyl)pyridazin-4-yl)piperidine-1-carbonyl)hexahydro-2H-pyrido[4,3-b][1,4]oxazin-3(4H)-one]",90.9 nM
19,"O=C1CO[C@H]2CCN(C(=O)N3CC(c4nnc(-c5ccc(F)cc5F)[nH]4)C3)C[C@H]2N1 [Example 48, (4aR,8aS)-6-[3-[5-(2,4-Difluorophenyl)-4H-1,2,4-triazol-3-yl]azetidine-1-carbonyl]-4,4a,5,7,8,8a-hexahydropyrido[4,3-b][1,4]oxazin-3-one]",333 nM
20,"O=C1CO[C@H]2CCN(C(=O)N3CC(OCc4ccc(F)cc4C(F)(F)F)C3)C[C@H]2N1 [Example 49, (4aR,8aS)-6-[3-[[4-Fluoro-2-(trifluoromethyl)phenyl]methoxy]azetidine-1-carbonyl]-4,4a,5,7,8,8a-hexahydropyrido[4,3-b][1,4]oxazin-3-one]",34 nM
21,"(4aR,8aS)-6-[rel-(3R,4R)-4-[(2-chloro-4-fluoro-phenoxy)methyl]-3-methyl-piperidine-1-carbonyl]-4,4a,5,7,8,8a-hexahydropyrido[4,3-b][1,4]oxazin-3-one [Example 38]",6.4 nM
22,"(4aR,8aS)-6-[rel-(3R,4R)-4-[(2-chloro-4-fluoro-phenoxy)methyl]-3-methyl-piperidine-1-carbonyl]-4,4a,5,7,8,8a-hexahydropyrido[4,3-b][1,4]oxazin-3-one [Example 39]",1.9 nM
